Experimental data taken from patent US12729458B2, “Discovery and evolution of biologically active metabolites” (The Regents of the University of Colorado, a Body Corporate, priority 2020, dated 2026).
Entries after “also recorded” stand apart in the source; their conditions may differ. Read-outs that look alike come from different tables or passages of the source.

Assays:
[1] = target: T1, PTP1B1-281 (PTP1B282 in FIG. 12) (Homo sapiens, UniProt P18031); assay: pNPP hydrolysis by PTP1B lacking the α7 helix; format: biochemical, H. sapiens; details: for Ki: PTP1B1-281
T1 construct: made in house; host or cells: E. coli BL21 (DE3)
T1 sequence (P18031 1-281): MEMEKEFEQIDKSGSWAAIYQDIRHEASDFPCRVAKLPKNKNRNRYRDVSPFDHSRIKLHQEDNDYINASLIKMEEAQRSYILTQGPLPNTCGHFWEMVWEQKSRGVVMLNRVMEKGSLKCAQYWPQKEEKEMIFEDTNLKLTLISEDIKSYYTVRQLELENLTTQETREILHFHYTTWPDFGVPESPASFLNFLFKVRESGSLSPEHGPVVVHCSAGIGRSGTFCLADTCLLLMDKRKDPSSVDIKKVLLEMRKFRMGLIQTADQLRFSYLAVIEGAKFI
Description: (§1) Enzyme kinetics. To examine terpenoid-mediated inhibition, we measured PTP-catalyzed hydrolysis of p-nitrophenyl phosphate (pNPP) or 4-methylumbelliferyl phosphate (4-MUP, used when KM for pNPP was large) in the presence of various concentrations of terpenoids. Each reaction included PTP (0.05 μM PTP1B/TCPTP or 0.1 μM SHP1/SHP2 in 50 mM HEPES, 0.5 mM TCEP, 50 μg/ml BSA), pNPP (0.33, 0.67, 2, 5, 10, and 15 mM) or 4-MUP (0.13, 0.27, 0.8, 2.27, 2.93, 4.53, 7.07, and 8 mM), inhibitor (with concentrations listed in the figures), buffer (50 mM HEPES pH=7.3, 50 μg/ml BSA), and DMSO at 10% v/v. We monitored the formation of p-nitrophenol by measuring absorbance at 405 nm every 10 seconds for 5 minutes on a SpectraMax M2 plate reader and the formation of 4-methylumbelliferyl by measuring fluorescence at 450 nm (370 nm ex, 435 nm cutoff, medium gain).
(§2) We used a custom MATLAB script to process all raw kinetic data. This script removed all concentration values that fell outside of either (i) the range of our standard curve (absorbance/fluorescence vs. μM; FIG. 39) or (ii) the initial rate regime (>10% of the pNPP or 4-MUP concentration used in the assay). When this step reduced kinetic dataset to fewer than ten points, we re-measured those datasets to collect at least ten. We fit final datasets, in turn, with a linear regression model (using Matlab's backslash operator).
We evaluated kinetic models in three steps: (i) We fit initial-rate measurements collected in the absence and presence of inhibitors to Michaelis-Menten and inhibition models, respectively (here, we used the nlinfit and fminsearch functions from MATLAB; TABLE 12). (ii) We used an F-test to compare the mixed model to the single-parameter model with the least sum squared error (here, we used the fedf function from MATLAB to assign p-values), and we accepted the mixed model when p<0.05. (iii) We used the Akaike's Information Criterion (AIC) to compare the best-fit single parameter model to each alternative single parameter model, and we accepted the “best-fit” model when the difference in AIC (Δi) exceed 5 for all comparisons.^78 We note: For AD, AB, and (+) 1-(10),4-cadinadiene this criterion was not met; both noncompetitive and uncompetitive models, however, yielded indistinguishable ICso's.
We used the MATLAB function “nlparci” to determine the confidence intervals of kinetic parameters, and we propagated those intervals to estimate corresponding confidence intervals for each IC50.

[2] = target: T2, SHP1 (Homo sapiens, UniProt P29350); assay: SHP1-catalyzed hydrolysis of 4-MUP in the presence of terpenoids; format: biochemical, H. sapiens
T2 construct: made in house; host or cells: E. coli BL21 (DE3)
Description: as §1
as §2, with “operator). […]” for “operator).”

[3] = tested on: insulin receptor (IR) phosphorylation (PTP1B-mediated) in HEK293T/17 cells; assay: ELISA of insulin receptor (IR) phosphorylation in HEK293T/17 cells; format: cell-based; details: for IR phosphorylation (ELISA signal): 3% DMSO, 10 minutes, starved HEK293T/17 cells, vs 3% DMSO control; for Δμ, null hypothesis compound-(−) = 0: difference of means vs negative control (−)
From the text: Analysis of PTP1B inhibition in HEK293TCells. We prepared HEK293T/17 cells for an enzyme-linked immunosorbent assay (ELISA) by growing them in 75 cm^2 culture flasks (Corning) with DMEM media supplemented with 10% FBS, 100 units/ml penicillin, and 100 units/ml streptomycin. We replaced the media every day for 3-5 days until the cells reached 80-100% confluency.
We measured the influence of inhibitors on insulin receptor (IR) phosphorylation by using an IR-specific ELISA (FIG. 35). Briefly, we starved cells for 48 hours in FBS-free media and incubated the with inhibitors (all at 3% DMSO) for 10 minutes. After incubation, we lysed cells with lysis buffer (9803, Cell Signaling Technology) supplemented with 1× halt phosphatase inhibitor cocktail and 1× halt protease inhibitor cocktail (Thermo Fisher Scientific) for 10 min, pelleted the cell debris, and used the lysis buffer to dilute each sample to 60 mg/ml total protein. We measured IR phosphorylation in subsequent dilutions of the 60 mg/ml samples with the PathScan® Phospho-Insulin Receptor β (panTyr) Sandwich ELISA Kit (Cell Signaling Technology; #7082).
Statistical analysis and reproducibility. We determined statistical significance (FIG. 23H) with a two-tailed Student's t-test (details in TABLE 14), and we used an F-test to compare one- and two-parameter models of inhibition (TABLE 12).

[4] = target: T3, PTP1B (Homo sapiens, UniProt P18031); format: cell-based, H. sapiens; details: terpenoid produced in the cell by its metabolic pathway
T3 construct: In this study, we used a well-studied truncation variant (i.e., PTP1B1-321); His-tag; made in house; host or cells: E. coli BL21 (DE3), pET21b
T3 sequence (P18031 1-321): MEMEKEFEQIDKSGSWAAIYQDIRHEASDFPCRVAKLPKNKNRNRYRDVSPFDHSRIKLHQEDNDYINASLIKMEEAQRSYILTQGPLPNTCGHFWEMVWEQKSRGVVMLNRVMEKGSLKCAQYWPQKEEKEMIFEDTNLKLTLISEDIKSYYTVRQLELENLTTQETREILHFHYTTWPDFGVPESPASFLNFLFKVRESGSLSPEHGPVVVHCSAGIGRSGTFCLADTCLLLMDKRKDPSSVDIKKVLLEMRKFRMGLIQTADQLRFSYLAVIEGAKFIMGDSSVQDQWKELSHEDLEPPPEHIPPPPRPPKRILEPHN

[5] = competitive model of inhibition, read-out: Fit par. Ki, competitive model
[6] = mixed model, competitive constant, read-out: Fit par. Ki,c, mixed model
[7] = mixed model, uncompetitive constant, read-out: Fit par. Ki,u, mixed model
[8] = noncompetitive model of inhibition, read-out: Fit par. Ki, noncompetitive model
[9] = uncompetitive model of inhibition, read-out: Fit par. Ki, uncompetitive model
[10] = FIG. 3h, t-test, unequal variance

T2 sequence (P29350 whole entry): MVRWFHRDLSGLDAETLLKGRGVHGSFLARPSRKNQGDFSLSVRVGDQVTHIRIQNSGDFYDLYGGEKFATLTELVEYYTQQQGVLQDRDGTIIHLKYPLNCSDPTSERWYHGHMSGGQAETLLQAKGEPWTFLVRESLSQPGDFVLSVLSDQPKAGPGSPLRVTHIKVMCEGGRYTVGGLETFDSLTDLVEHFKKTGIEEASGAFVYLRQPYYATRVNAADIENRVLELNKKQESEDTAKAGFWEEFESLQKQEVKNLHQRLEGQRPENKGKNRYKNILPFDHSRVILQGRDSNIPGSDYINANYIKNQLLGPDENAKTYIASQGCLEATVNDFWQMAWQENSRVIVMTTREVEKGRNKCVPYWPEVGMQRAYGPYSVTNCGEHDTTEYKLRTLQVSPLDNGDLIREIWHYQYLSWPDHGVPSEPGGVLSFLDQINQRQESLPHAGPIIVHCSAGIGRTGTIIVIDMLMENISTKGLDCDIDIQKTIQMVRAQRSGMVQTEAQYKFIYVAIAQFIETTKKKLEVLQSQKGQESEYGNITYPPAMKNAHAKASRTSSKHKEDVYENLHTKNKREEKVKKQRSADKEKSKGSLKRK

Compound | Ki [1, 5] [µM] | Ki [1, 6] [µM] | Ki [1, 7] [µM] | Ki [1, 8] [µM] | Ki [1, 9] [µM] | potency against PTP1B282 (no α7 helix) relative to PTP1B321 ([1]; pNPP, less potent on PTP1B282) | inhibition of SHP1 [2] | IR phosphorylation (ELISA signal) ([3]; 930 μM) | IR phosphorylation (ELISA signal) ([3]; 930 μM, listed as AD) | IR phosphorylation (ELISA signal) ([3]; 930 μM, listed as Amorphadiene) | Δμ, null hypothesis AD-DHA = 0 ([3]; difference of means AD vs DHA, FIG. 3h, t-test, unequal variance) | Δμ, null hypothesis compound-(−) = 0 [3, 10] | survival of E. coli with PTP1B B2H system on spectinomycin [4] | IR phosphorylation (ELISA signal) ([3]; 405 μM) | IR phosphorylation (ELISA signal) ([3]; 405 μM, listed as AB) | Δμ, null hypothesis AB-ABOL = 0 ([3]; difference of means AB vs ABOL, FIG. 3h, t-test, unequal variance)
C=C(C)[C@@H]1CC[C@@H](C)[C@@H]2CCC(C)=C[C@@H]21 [amorphadiene] | 37.9 | 157 | 271 | 244 | 210 | ~ four-fold | too weak to measure | inhibit PTP1B inside of a HEK293T/17 cell; also recorded: can increase IR phosphorylation over a negative control | increased IR phosphorylation over a negative control | stimulate IR phosphorylation | 0.124 | 0.212 | permitted survival at high concentrations of antibiotic |  |  | 
CC(C)=CCC=C(C)C1CC=C(C)CC1 (stereo not drawn) [α-bisabolene] | 6.51 | 39 | 47.7 | 46.3 | 40 |  | low potency |  |  |  |  | 0.310 | permitted survival at high concentrations of antibiotic | stimulate IR phosphorylation; also recorded: can increase IR phosphorylation over a negative control | increased IR phosphorylation over a negative control | 0.309
